Data published in ChEMBL document CHEMBL1201862, “PubChem BioAssay data set” (2004).
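Following 48 hours of exposure in 96-well plates, responses at five concentrations were used to interpolate endpoints linearly. Here, GI50 denotes the concentration required for 50% inhibition of growth.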 Activity calls are given as the source filed them. Cut-off read from the data, not from the text of the source: active = GI50 up to about 1.1 µM and inactive = higher.

How the values were obtained:
Experiment in all cases: growth of human tumour cells (NCI), 48 h
[1] = system: NCI-H460
[2] = system: RPMI-8226
[3] = system: TK-10
[4] = system: NCI-H226
[5] = system: NCI-H522
[6] = system: CAKI-1
[7] = system: SNB-19
[8] = system: 786-0
[9] = system: K562
[10] = system: XF498
[11] = system: IGROV-1
[12] = system: OVCAR-5
[13] = system: SF-268
[14] = system: DMS-273
[15] = system: OVCAR-3
[16] = system: KM12
[17] = system: PC-3
[18] = system: DU-145
[19] = system: MDA-MB-435
[20] = system: MDA-MB-231

Row | Compound | GI50 [1] | GI50 [2] | GI50 [3] | GI50 [4] | GI50 [5] | GI50 [6] | GI50 [7] | GI50 [8] | GI50 [9] | GI50 [10] | GI50 [11] | GI50 [12] | GI50 [13] | GI50 [14] | GI50 [15] | GI50 [16] | GI50 [17] | GI50 [18] | GI50 [19] | GI50 [20]
1 | CCC1C(=O)OCc2c1cc1n(c2=O)C(CC)c2c-1nc1ccccc1c2Cl (centres undefined) | 15.1 µM (inactive) | 13.2 µM (inactive) | 40.9 µM (inactive) | 29.1 µM (inactive) | 15 µM (inactive) | 23 µM (inactive) | 29.6 µM (inactive) | 15.7 µM (inactive) | 27.9 µM (inactive) | 24.8 µM (inactive) | 19.9 µM (inactive) | 23.1 µM (inactive) | 23.9 µM (inactive) | 7.85 µM (inactive) | 20.3 µM (inactive) | 24.6 µM (inactive) |  |  |  | 
2 | CCOC(=O)NC1CC2CCC1(OC)C=C2C (centres undefined) | > 100 µM (inactive) | > 100 µM (inactive) | > 100 µM (inactive) | > 100 µM (inactive) | > 100 µM (inactive) | > 53.5 µM (inactive) | > 100 µM (inactive) | > 100 µM (inactive) | > 100 µM (inactive) | > 100 µM (inactive) | > 100 µM (inactive) | > 100 µM (inactive) | > 100 µM (inactive) | > 100 µM (inactive) | > 100 µM (inactive) | > 100 µM (inactive) |  |  |  | 
3 | COc1cc([C@@H]2c3cc4c(cc3[C@@H](NC(=O)c3ccc(C(C)=O)cc3)C3COC(=O)[C@@H]32)OCO4)cc(OC)c1O (some centres undefined) | < 0.01 µM (active) | 0.877 µM (active) | 5.81 µM (inactive) | 0.159 µM (active) | 1.1 µM (active) | 1.9 µM (inactive) | 0.29 µM (active) | 0.327 µM (active) | 1.48 µM (inactive) | 0.347 µM (active) | 1.03 µM (active) | 0.895 µM (active) | 1.09 µM (active) | 0.0556 µM (active) | 2.38 µM (inactive) | 1.36 µM (inactive) |  |  |  | 
4 | COc1ccc(OC(C(=O)O)C(C)C)c2c1CCCC2=O (centres undefined) | > 100 µM (inactive) | > 100 µM (inactive) | > 100 µM (inactive) |  | > 100 µM (inactive) | > 100 µM (inactive) | > 100 µM (inactive) | > 100 µM (inactive) | > 100 µM (inactive) | > 100 µM (inactive) | > 100 µM (inactive) | > 100 µM (inactive) | > 100 µM (inactive) | > 100 µM (inactive) | > 100 µM (inactive) | > 100 µM (inactive) |  |  |  | 
5 | CC1=CC(C)(C)N=C2SC(c3ccc(N)cc3)=NN12 | 52.4 µM (inactive) | 21.1 µM (inactive) | > 100 µM (inactive) | > 94.6 µM (inactive) | 58.6 µM (inactive) | 61.8 µM (inactive) | > 87.3 µM (inactive) | 57.1 µM (inactive) | 32.6 µM (inactive) | 50.9 µM (inactive) | > 100 µM (inactive) | 49.7 µM (inactive) | > 67.6 µM (inactive) | > 42.9 µM (inactive) | 58.2 µM (inactive) | > 70.6 µM (inactive) |  |  |  | 
6 | COc1ccc(N2C(=O)[C@@H]3[C@@H]4CC(C)CC[C@@H]4c4c([nH]c5ccccc45)[C@@H]3C2=O)cc1 (some centres undefined) | 13.5 µM (inactive) | > 10 µM (inactive) | 18.8 µM (inactive) | 7.38 µM (inactive) | 19.4 µM (inactive) | 29 µM (inactive) | 8.24 µM (inactive) | 7.45 µM (inactive) | 30.7 µM (inactive) | 8.3 µM (inactive) | 18.8 µM (inactive) | > 77.6 µM (inactive) | 13.3 µM (inactive) | 14.7 µM (inactive) | 19.8 µM (inactive) | 50.1 µM (inactive) |  |  |  | 
7 | CC1NC(=O)CC(c2ccccc2)N(N=O)C1c1ccccc1 (centres undefined) | 25.8 µM (inactive) | 26.5 µM (inactive) |  | 58.5 µM (inactive) | 22.1 µM (inactive) | 37.1 µM (inactive) | 40 µM (inactive) |  | 28 µM (inactive) | 25.8 µM (inactive) | 42.1 µM (inactive) | > 100 µM (inactive) | 31.8 µM (inactive) | 26 µM (inactive) | 33.2 µM (inactive) | 56.1 µM (inactive) |  |  |  | 
8 | O=C1NC(=O)C2C(=O)NC(=O)C1C2(c1ccccc1)c1ccc(Cl)cc1 (centres undefined) | > 100 µM (inactive) | > 100 µM (inactive) | > 100 µM (inactive) | > 100 µM (inactive) | > 100 µM (inactive) | > 100 µM (inactive) | > 100 µM (inactive) | > 100 µM (inactive) | > 100 µM (inactive) | > 100 µM (inactive) | > 100 µM (inactive) | > 100 µM (inactive) | > 100 µM (inactive) | > 100 µM (inactive) | > 100 µM (inactive) | > 100 µM (inactive) |  |  |  | 
9 | CN(/N=C/c1cccc2cccnc12)c1ccccc1 | 79.6 µM (inactive) | > 100 µM (inactive) | 71.1 µM (inactive) | > 100 µM (inactive) | > 100 µM (inactive) | 7.85 µM (inactive) | 59.8 µM (inactive) | 55.3 µM (inactive) | > 100 µM (inactive) | > 100 µM (inactive) | 73.6 µM (inactive) | > 100 µM (inactive) | > 100 µM (inactive) | 85.7 µM (inactive) | 13.2 µM (inactive) | 78.3 µM (inactive) |  |  |  | 
10 | Cc1ccc(S(=O)(=O)NCC2CCCCC2=O)cc1 (centres undefined) | > 100 µM (inactive) | 40.8 µM (inactive) | > 100 µM (inactive) | > 100 µM (inactive) | 56.8 µM (inactive) | 15 µM (inactive) | > 100 µM (inactive) | > 100 µM (inactive) | 66.1 µM (inactive) | > 100 µM (inactive) | > 100 µM (inactive) | > 100 µM (inactive) | 70 µM (inactive) | > 100 µM (inactive) | > 100 µM (inactive) | > 100 µM (inactive) |  |  |  | 
11 | O=C(CCC(=O)C1CCC/C1=N/O)Nc1ccc(Cl)cc1 (centres undefined) | > 100 µM (inactive) | > 100 µM (inactive) | > 100 µM (inactive) | > 100 µM (inactive) | > 100 µM (inactive) | > 100 µM (inactive) | > 100 µM (inactive) | > 100 µM (inactive) | > 100 µM (inactive) | > 100 µM (inactive) | > 100 µM (inactive) | > 100 µM (inactive) | > 100 µM (inactive) | > 100 µM (inactive) | > 100 µM (inactive) | > 100 µM (inactive) |  |  |  | 
12 | CC(=O)OCC1OC(n2cc([N+](=O)[O-])c(=O)[nH]c2=O)C(OC(C)=O)C(OC(C)=O)C1OC(C)=O (centres undefined) | > 100 µM (inactive) | > 100 µM (inactive) | > 100 µM (inactive) | 42.2 µM (inactive) | > 100 µM (inactive) | > 100 µM (inactive) | > 100 µM (inactive) | > 100 µM (inactive) | > 100 µM (inactive) | > 100 µM (inactive) | > 100 µM (inactive) | > 100 µM (inactive) | > 100 µM (inactive) | > 100 µM (inactive) | > 100 µM (inactive) | > 100 µM (inactive) |  |  |  | 
13 | CN1Cc2c(nc(-c3ccccc3)c[n+]2[O-])N(C)C1 | > 100 µM (inactive) | > 100 µM (inactive) | > 100 µM (inactive) | > 100 µM (inactive) | > 100 µM (inactive) | > 100 µM (inactive) | > 100 µM (inactive) | > 100 µM (inactive) | > 100 µM (inactive) | > 100 µM (inactive) | > 100 µM (inactive) | > 100 µM (inactive) | > 100 µM (inactive) | > 100 µM (inactive) | > 100 µM (inactive) | > 100 µM (inactive) |  |  |  | 
14 | COc1ccc2c(c1)[n+]([O-])c(-c1c(Cl)cccc1Cl)c(N)[n+]2[O-] | 44.4 µM (inactive) | 80.4 µM (inactive) | > 100 µM (inactive) | 79.6 µM (inactive) | > 10 µM (inactive) | 50.5 µM (inactive) | 50 µM (inactive) | 56.5 µM (inactive) | 53.6 µM (inactive) | 24.6 µM (inactive) | 47.4 µM (inactive) | > 100 µM (inactive) | 40.6 µM (inactive) | 37.5 µM (inactive) | 38.9 µM (inactive) | 87.3 µM (inactive) |  |  |  | 
15 | O=C1C(c2ccc([N+](=O)[O-])cc2)=C(Cl)C(=O)c2c(O)cccc21 | 52.8 µM (inactive) | 41.3 µM (inactive) | 20.2 µM (inactive) | > 43.2 µM (inactive) | 7.87 µM (inactive) | 23.7 µM (inactive) | 22.5 µM (inactive) | 15.5 µM (inactive) | 11.4 µM (inactive) | 10.6 µM (inactive) | 26.4 µM (inactive) | 40.7 µM (inactive) | 23.1 µM (inactive) | 28 µM (inactive) | 17.7 µM (inactive) | 25.6 µM (inactive) | 26.1 µM (inactive) | 20.7 µM (inactive) | 17.7 µM (inactive) | 17.1 µM (inactive)
16 | CC(C)=CCCC(C)[C@H]1CC(O)C2(C)C3=CCC4C(C)(C)[C@@H](O)CC[C@]4(C)C3=CC[C@]12C (some centres undefined) | 2.24 µM (inactive) | 3.27 µM (inactive) | 16.7 µM (inactive) | 3.74 µM (inactive) | 0.401 µM (active) | 8.36 µM (inactive) | 12.1 µM (inactive) | 1.55 µM (inactive) | 1.59 µM (inactive) | 8.34 µM (inactive) | 9.29 µM (inactive) | 25 µM (inactive) | 6.01 µM (inactive) | 1.57 µM (inactive) | 3.2 µM (inactive) | 4.36 µM (inactive) |  |  |  | 
17 | CC(=O)N/C=C/c1cc(O)ccc1O | > 60.7 µM (inactive) | 40.3 µM (inactive) | 39.2 µM (inactive) | 46.3 µM (inactive) | 3.67 µM (inactive) | 16.6 µM (inactive) | > 52.7 µM (inactive) | 33.2 µM (inactive) | 35.9 µM (inactive) | 18.1 µM (inactive) | > 55.1 µM (inactive) | 29.4 µM (inactive) | 31.8 µM (inactive) | > 67.5 µM (inactive) | 16 µM (inactive) | 37.7 µM (inactive) |  | 41.3 µM (inactive) |  | 
